Data on two compounds can be found in US10604476B2, “Fluorinated amide derivatives and their uses as therapeutic agents” (Trillium Therapeutics Inc., priority 2015, dated 2020).

For assay [1], the system named is formalin-induced paw licking. The assay is described as follows: Mouse formalin test. In kind it is in vivo. To be noted: 41 mg/kg i.p.; most pronounced in second (late) phase. How it is done: The formalin test is performed according to the method of Tjolsen et al. Pain, 1992. 51(1). An injection of 0.5% formalin (Sigma) is made into the planter region of the right hind paw of an adult (26-30 g) male CF-1 mouse. Sub-dermal formalin injection elicits a distinct behavioral profile characterized by the mouse licking the affected paw. The behavior is characteristically biphasic in nature. For example, immediately following the injection the mouse licks the paw intensely for approximately 10 min. This is referred to as phase 1 (or, the acute phase) and is followed by a brief latent period (<5 minutes) where there is little behavioral activity. A more prolonged period of about 20-30 min of activity then ensues, which constitutes phase 2 (or, the inflammatory phase). […] The area under the curve (AUG) is calculated for both the acute and inflammatory phases of the licking response for individual animals in both the test and control groups. The percent of control AUG for drug-treated animal groups is determined using the Graph-Pad Prism Version 3.03. The total AUG for each phase of the test group is also calculated and converted to percentage of total AUG of control for each phase. The average and S.E.M. for both the drug treated and control percentages are calculated and tested for significant difference.

Assay [2] deals with LTG-resistant amygdala kindled seizures. In words: Lamotrigine (LTG) resistant amygdala kindled seizure rat model. The note with it: for Duration (sec) ± SD (afterdischarge) / N/F, number of animals active over the number tested / Seizure Score ± SEM: 0.25 hr. It is filed as in vivo. The source says:
The LTG-resistant amygdala kindled rat model is useful for not only identifying compounds effective against secondarily generalized partial seizures, but also allows for the differentiation of compounds that may be effective in therapy-resistant patients. […] Conversely, valproate can both prevent kindling development and block the expression of fully kindled seizures. The addition of the traditional ASDs, carbamazepine or lamotrigine, during the development of kindled seizures in this model will ultimately impair the effectiveness of lamotrigine against a fully expressed kindled seizure. […] This model may serve as a means to identify compounds which may be effective against therapy-resistant seizures. Anesthetized male Sprague-Dawley rats (250-300 g) are surgically implanted with an electrode into the left amygdala. Animals are then allowed to recover for one week before commencing kindling. The kindling procedure consists of delivering a 200 μAmp stimulus (suprathreshold) daily until all animals in both treatment groups display consistent Stage 4 or 5 seizures. One week after all animals are kindled, the animals receive a challenge dose of LTG (30 mg/kg, i.p.) before being stimulated to confirm the LTG sensitivity of the vehicle-treated control animals, as well as the LTG-resistance of the LTG-treated group. The animals are then allowed a washout of 3 days. On day 3 of the washout, the animals are pre-stimulated to ensure recovery of the fully kindled seizure. On day 4, kindled rats are challenged with a dose of an investigational agent (the dose that produced minimal motor impairment) and then challenged with the kindling stimulus at the predetermined TPE of the investigational drug. […] For this study, the ability of a candidate substance to reduce afterdischarge duration (ADD) and behavioral seizure scores (BSS) is quantitated by varying the dose between 0 and 100% effect. Unlike other acute seizure tests conducted by the ETSP, each kindled rat is allowed at least 3-4 days between tests to “washout” any investigational compound after testing. The average seizure scores±S.E.M. and afterdischarge duration (ADD) are noted, as are the number of animals protected from seizure (defined as a Racine score<3) over the number of animals tested.
The following procedure is used for surgical implantation of Electrodes. Male Spraque-Dawey rats are anesthetized using 1-3% isoflurane or a Ketamine/Xylazine cocktail. Ketamine is provided as 100 mg/ml solution, and dose 50 mg/kg given i.p. Xylazine is provided as 100 mg/ml solution, and dose 20 mg/kg given i.p. Mix the two solutions together in one syringe and administer i.p as one injection. Rat is monitored through surgery. If the rat is responsive to a tail pinch administer half the dose of Ketamine/xylazine or increase the isoflurane percentage. Administer buprenorphine at 0.02 mg/kg s.c. for pain management. An electric razor is used to shave the surface of the head. The rat is placed on an external heat source on the stereotaxic apparatus such that the height of the incisor bar and the positioning of the ear bars ensure consistency with the reference atlas. The entire scalp is scrubbed with betadine (3×) and wiped with alcohol. Ophthalmic ointment is applied to each eye. All instruments are sterilized via autoclave before beginning surgery. During surgery instruments are placed on a sterile drape. For subsequent surgeries on the same day, instruments can be placed into the hot bead sterilizer between surgeries. Stainless steel screws and electrodes are sterilized in 70% alcohol and place on a sterile drape. A sterile scalpel blade is used to make a midline scalp incision beginning from a point even with the eyes and extending back to and imaginary line connecting the ear. The fascia should be gently split and pulled away by from the scalp. The incision can be held open using retractors/forceps. […]

Turning to `NC(=O)COc1cc(C(F)(F)F)cc(C(F)(F)F)c1` [I(F), 2-[3,5 bis(trifluoromethyl)-phenoxy]acetamide;], the “number of paw licks” value in assay [1] is given as “significant decrease”.

As to `C[C@@H](Oc1cc(Cl)cc(C(F)(F)F)c1)C(N)=O` [I(D), (2R)-2-[3-chloro-5-(trifluoromethyl)-phenoxy]propanamide], the “Duration (sec) ± SD (afterdischarge)” value in assay [2] (10 mg/kg i.p.) was found to be 158.5 ± 21.5 s; in assay [2] (25 mg/kg i.p.), 71.0 ± 13.61 s; in assay [2] (37.5 mg/kg i.p.), 54.2 ± 10.38 s; in assay [2] (50 mg/kg i.p.) it was 71.0 ± 13.61 s. For the same compound, the “N/F, number of animals active over the number tested” value in assay [2] (10 mg/kg i.p.) is reported as 0/2; in assay [2] (25 mg/kg i.p.), 1/5; in assay [2] (37.5 mg/kg i.p.), 3/5; in assay [2] (50 mg/kg i.p.), 6/6. In addition, the “Seizure Score ± SEM” value in assay [2] (10 mg/kg i.p.) is recorded as 5 ± 0.0; in assay [2] (25 mg/kg i.p.), 4.4 ± 0.6; in assay [2] (37.5 mg/kg i.p.), 3.2 ± 0.75; in assay [2] (50 mg/kg i.p.), 0.83 ± 0.17. In addition, in assay [2] (i.p., LTG-resistant kindled rats), the “EC50, reduction of seizure score (seizure severity)” value was found to be 32.55 ± 3.58 mg/kg.
